Organism: Rattus norvegicus
Test: DrugMatrix - Regimen: Daily Repeat
Type: toxicity, organism-based, Sprague-Dawley
Set-up: regimen Daily Repeat, gender Male, age 6-8 weeks
Conditions: in vivo, po, route oral GAVAGE, vehicle .5 % CMC; for ALANINE AMINOTRANSFERASE / ALBUMIN / ALKALINE PHOSPHATASE / ASPARTATE AMINOTRANSFERASE / BLOOD UREA NITROGEN / CHLORIDE / CHOLESTEROL / CREATINE PHOSPHOKINASE / CREATININE / GLUCOSE / LACTATE DEHYDROGENASE / LIPASE / PHOSPHORUS / POTASSIUM / SODIUM / TOTAL BILIRUBIN / TOTAL PROTEIN / URIC ACID: tissue Plasma
[1] = 80 mg/kg, 2184 h, tissue Blood, dose level Low, time 91 day
[2] = 80 mg/kg, 2184 h, dose level Low, time 91 day
[3] = 80 mg/kg, […], tissue Blood, dose level Low, time 28 day
[4] = 80 mg/kg, […], dose level Low, time 28 day
[5] = 150 mg/kg, 72 h, tissue Blood, dose level M1, time 3 day
[6] = 150 mg/kg, 72 h, dose level M1, time 3 day
[7] = 150 mg/kg, 120 h, tissue Blood, dose level M1, time 5 day
[8] = 150 mg/kg, 120 h, dose level M1, time 5 day
[9] = 1500 mg/kg, 72 h, tissue Blood, dose level High, time 3 day
[10] = 1500 mg/kg, 72 h, dose level High, time 3 day
[11] = 1500 mg/kg, 120 h, tissue Blood, dose level High, time 5 day
[12] = 1500 mg/kg, 120 h, dose level High, time 5 day

Structure (SMILES): O=c1cc(-c2ccccc2)oc2ccc3ccccc3c12 [BETA-NAPHTHOFLAVONE]
- EOSINOPHIL [1]: 0.76%
- ERYTHROCYTE COUNT [1]: 8.94 x10E6/uL
- HEMATOCRIT [1]: 47.57%
- HEMOGLOBIN [1]: 15.76 G/DL
- LEUKOCYTE COUNT [1]: 15.13 x10E3/uL
- LYMPHOCYTE [1]: 74.26%
- MEAN CORPUSCULAR HEMOGLOBIN [1]: 17.63 pg
- MEAN CORPUSCULAR HEMOGLOBIN CONCENTRATION [1]: 33.13 G/DL
- MEAN CORPUSCULAR VOLUME [1]: 53.23 fL
- MONOCYTE [1]: 1.9%
- NEUTROPHIL [1]: 20.01%
- PLATELET COUNT [1]: 1247.3 x10E3/uL
- ALANINE AMINOTRANSFERASE [2]: 27.5 u/L
- ALBUMIN [2]: 3.68 G/DL
- ALKALINE PHOSPHATASE [2]: 82.2 u/L
- ASPARTATE AMINOTRANSFERASE [2]: 64.9 u/L
- BLOOD UREA NITROGEN [2]: 15.3 mg/dL
- CHLORIDE [2]: 104 MEQ/L
- CHOLESTEROL [2]: 68.4 mg/dL
- CREATINE PHOSPHOKINASE [2]: 81.3 u/L
- CREATININE [2]: 0.51 mg/dL
- GLUCOSE [2]: 148 mg/dL
- LACTATE DEHYDROGENASE [2]: 43.4 u/L
- LIPASE [2]: 20.6 u/L
- PHOSPHORUS [2]: 8.24 mg/dL
- POTASSIUM [2]: 6.5 MEQ/L
- SODIUM [2]: 150 MEQ/L
- TOTAL BILIRUBIN [2]: 0.21 mg/dL
- TOTAL PROTEIN [2]: 7.08 G/DL
- URIC ACID [2]: 0.93 mg/dL
- ABSOLUTE BASOPHIL [3]: 190 cells/µL
- ABSOLUTE EOSINOPHIL [3]: 60 cells/µL
- ABSOLUTE LYMPHOCYTE [3]: 13200 cells/µL
- ABSOLUTE MONOCYTE [3]: 300 cells/µL
- ABSOLUTE SEGMENTED NEUTROPHIL [3]: 1910 cells/µL
- BASOPHIL [3]: 1.18%
- EOSINOPHIL [3]: 0.36%
- ERYTHROCYTE COUNT [3]: 8.59 x10E6/uL
- HEMATOCRIT [3]: 48.64%
- HEMOGLOBIN [3]: 16.08 G/DL
- LEUKOCYTE COUNT [3]: 15.78 x10E3/uL
- LYMPHOCYTE [3]: 83.98%
- MEAN CORPUSCULAR HEMOGLOBIN [3]: 18.78 pg
- MEAN CORPUSCULAR HEMOGLOBIN CONCENTRATION [3]: 33.1 G/DL
- MEAN CORPUSCULAR VOLUME [3]: 56.7 fL
- MONOCYTE [3]: 1.92%
- NEUTROPHIL [3]: 12%
- PLATELET COUNT [3]: 1252.8 x10E3/uL
- ALANINE AMINOTRANSFERASE [4]: 30.4 u/L
- ALBUMIN [4]: 3.64 G/DL
- ALKALINE PHOSPHATASE [4]: 126 u/L
- ASPARTATE AMINOTRANSFERASE [4]: 71.4 u/L
- BLOOD UREA NITROGEN [4]: 13.4 mg/dL
- CHLORIDE [4]: 103.4 MEQ/L
- CHOLESTEROL [4]: 69.8 mg/dL
- CREATINE PHOSPHOKINASE [4]: 116.2 u/L
- CREATININE [4]: 0.48 mg/dL
- GLUCOSE [4]: 156.6 mg/dL
- LACTATE DEHYDROGENASE [4]: 80.8 u/L
- LIPASE [4]: 13 u/L
- PHOSPHORUS [4]: 9.74 mg/dL
- POTASSIUM [4]: 6.34 MEQ/L
- SODIUM [4]: 149.8 MEQ/L
- TOTAL BILIRUBIN [4]: 0.24 mg/dL
- TOTAL PROTEIN [4]: 6.58 G/DL
- URIC ACID [4]: 0.58 mg/dL
- BASOPHIL [5]: 0.43%
- EOSINOPHIL [5]: 0.3%
- ERYTHROCYTE COUNT [5]: 6.69 x10E6/uL
- HEMATOCRIT [5]: 42.2%
- HEMOGLOBIN [5]: 13.2 G/DL
- LEUKOCYTE COUNT [5]: 11.3 x10E3/uL
- LYMPHOCYTE [5]: 85.87%
- MEAN CORPUSCULAR HEMOGLOBIN [5]: 19.73 pg
- MEAN CORPUSCULAR HEMOGLOBIN CONCENTRATION [5]: 31.23 G/DL
- MEAN CORPUSCULAR VOLUME [5]: 63.13 fL
- MONOCYTE [5]: 2.17%
- NEUTROPHIL [5]: 10.17%
- PLATELET COUNT [5]: 1377.33 x10E3/uL
- ALANINE AMINOTRANSFERASE [6]: 41.33 u/L
- ALBUMIN [6]: 3.57 G/DL
- ALKALINE PHOSPHATASE [6]: 337.33 u/L
- ASPARTATE AMINOTRANSFERASE [6]: 68.33 u/L
- BLOOD UREA NITROGEN [6]: 13 mg/dL
- CHLORIDE [6]: 103.33 MEQ/L
- CHOLESTEROL [6]: 100 mg/dL
- CREATINE PHOSPHOKINASE [6]: 163.67 u/L
- CREATININE [6]: 0.4 mg/dL
- GLUCOSE [6]: 179 mg/dL
- PHOSPHORUS [6]: 12.8 mg/dL
- POTASSIUM [6]: 6.93 MEQ/L
- SODIUM [6]: 148.33 MEQ/L
- TOTAL BILIRUBIN [6]: 0.4 mg/dL
- TOTAL PROTEIN [6]: 5.97 G/DL
- BASOPHIL [7]: 0.37%
- EOSINOPHIL [7]: 0.43%
- ERYTHROCYTE COUNT [7]: 7.05 x10E6/uL
- HEMATOCRIT [7]: 42.83%
- HEMOGLOBIN [7]: 13.57 G/DL
- LEUKOCYTE COUNT [7]: 14.17 x10E3/uL
- LYMPHOCYTE [7]: 88.67%
- MEAN CORPUSCULAR HEMOGLOBIN [7]: 19.27 pg
- MEAN CORPUSCULAR HEMOGLOBIN CONCENTRATION [7]: 31.67 G/DL
- MEAN CORPUSCULAR VOLUME [7]: 60.87 fL
- MONOCYTE [7]: 1.77%
- NEUTROPHIL [7]: 7.87%
- PLATELET COUNT [7]: 1364.33 x10E3/uL
- ALANINE AMINOTRANSFERASE [8]: 42.67 u/L
- ALBUMIN [8]: 3.6 G/DL
- ALKALINE PHOSPHATASE [8]: 295 u/L
- ASPARTATE AMINOTRANSFERASE [8]: 69.33 u/L
- BLOOD UREA NITROGEN [8]: 14 mg/dL
- CHLORIDE [8]: 104 MEQ/L
- CHOLESTEROL [8]: 99 mg/dL
- CREATINE PHOSPHOKINASE [8]: 224.33 u/L
- CREATININE [8]: 0.47 mg/dL
- GLUCOSE [8]: 169 mg/dL
- PHOSPHORUS [8]: 12.43 mg/dL
- POTASSIUM [8]: 6.6 MEQ/L
- SODIUM [8]: 147 MEQ/L
- TOTAL BILIRUBIN [8]: 0.57 mg/dL
- TOTAL PROTEIN [8]: 6 G/DL
- BASOPHIL [9]: 0.4%
- EOSINOPHIL [9]: 0.7%
- ERYTHROCYTE COUNT [9]: 7.11 x10E6/uL
- HEMATOCRIT [9]: 44.17%
- HEMOGLOBIN [9]: 13.9 G/DL
- LEUKOCYTE COUNT [9]: 12.26 x10E3/uL
- LYMPHOCYTE [9]: 82.2%
- MEAN CORPUSCULAR HEMOGLOBIN [9]: 19.53 pg
- MEAN CORPUSCULAR HEMOGLOBIN CONCENTRATION [9]: 31.47 G/DL
- MEAN CORPUSCULAR VOLUME [9]: 62.13 fL
- MONOCYTE [9]: 2.5%
- NEUTROPHIL [9]: 13.1%
- PLATELET COUNT [9]: 1171.33 x10E3/uL
- ALANINE AMINOTRANSFERASE [10]: 37 u/L
- ALBUMIN [10]: 3.53 G/DL
- ALKALINE PHOSPHATASE [10]: 263.67 u/L
- ASPARTATE AMINOTRANSFERASE [10]: 61.67 u/L
- BLOOD UREA NITROGEN [10]: 11.67 mg/dL
- CHLORIDE [10]: 103.33 MEQ/L
- CHOLESTEROL [10]: 122.33 mg/dL
- CREATINE PHOSPHOKINASE [10]: 219.67 u/L
- CREATININE [10]: 0.4 mg/dL
- GLUCOSE [10]: 175.67 mg/dL
- PHOSPHORUS [10]: 13.27 mg/dL
- POTASSIUM [10]: 7 MEQ/L
- SODIUM [10]: 145.33 MEQ/L
- TOTAL BILIRUBIN [10]: 0.47 mg/dL
- TOTAL PROTEIN [10]: 5.9 G/DL
- BASOPHIL [11]: 0.43%
- EOSINOPHIL [11]: 0.17%
- ERYTHROCYTE COUNT [11]: 6.8 x10E6/uL
- HEMATOCRIT [11]: 42.73%
- HEMOGLOBIN [11]: 13.33 G/DL
- LEUKOCYTE COUNT [11]: 11.39 x10E3/uL
- LYMPHOCYTE [11]: 85.5%
- MEAN CORPUSCULAR HEMOGLOBIN [11]: 19.63 pg
- MEAN CORPUSCULAR HEMOGLOBIN CONCENTRATION [11]: 31.3 G/DL
- MEAN CORPUSCULAR VOLUME [11]: 62.77 fL
- MONOCYTE [11]: 1.77%
- NEUTROPHIL [11]: 11.33%
- PLATELET COUNT [11]: 1352 x10E3/uL
- ALANINE AMINOTRANSFERASE [12]: 37.67 u/L
- ALBUMIN [12]: 3.6 G/DL
- ALKALINE PHOSPHATASE [12]: 289 u/L
- ASPARTATE AMINOTRANSFERASE [12]: 66.67 u/L
- BLOOD UREA NITROGEN [12]: 12.67 mg/dL
- CHLORIDE [12]: 102.33 MEQ/L
- CHOLESTEROL [12]: 101.33 mg/dL
- CREATINE PHOSPHOKINASE [12]: 145 u/L
- CREATININE [12]: 0.33 mg/dL
- GLUCOSE [12]: 186 mg/dL
- PHOSPHORUS [12]: 13.3 mg/dL
- POTASSIUM [12]: 6.73 MEQ/L
- SODIUM [12]: 147.67 MEQ/L
- TOTAL BILIRUBIN [12]: 0.27 mg/dL
- TOTAL PROTEIN [12]: 6.1 G/DL

Source: ChEMBL document CHEMBL3885881, “DrugMatrix”
